According to paper PMC5048394, “Development and substrate specificity screening of an in vivo biosensor for the detection of biomass derived aromatic chemical building blocks” (Chemical Communications (Cambridge, England), 2016):

System: PLC biosensor
Test: microbe, parasite or virus in culture
Assay type: cell-based, E. coli BL21
Conditions: for EC10: BL21; for Emax: BL21, read-out: Induction; for maximal fold induction: BL21, read-out: Signal range (max/min), substrate screening, PLC biosensor, E. coli BL21; for EC50 / EC90 / Induction / Sensing range (predicted) / Change in potency relative to sinapic acid (4) / Activity against the FerC biosensor: PLC biosensor; for EC50 / EC90 / Change in potency relative to sinapic acid (4) / Activity against the FerC biosensor: E. coli BL21; for Induction: E. coli BL21, 0.32–1000 μM; for Sensing range (predicted): E. coli BL21, text; for Output signal / efficacy: relative to the PLC biosensor response curve with ferulic acid
Experimental: Cells were centrifuged, washed and re-suspended with PBS buffer. The expression output was then analyzed by monitoring the fluorescence normalised to cell density (RFU/OD600) in a multimode plate reader (Methods, ESI ^†).
The sequences containing the PLC, PPC and PferB promoters, a RBS, and a Hexa-Histidine tag, flanked by SphI/NdeI were synthetized (GeneART, ThermoFisher). The sequences were enzyme restricted with SphI/NdeI and cloned in pET44eGFP,2 upstream to the eGFP gene, replacing the T7 promoter region generating respectively, the pET44PLCeGFP, pET44PPCeGFP and pET44PferBeGFP vectors.
The FerCA DNA sequence containing the ferA and ferC genes, individually flanked by a PLacI promoter and an rrn_B1 terminator, was synthetized by GeneARTTM (ThermoFisher).
The construct was cloned in a p15 plasmid flanked by NaeI/KasI restriction sites generating […]
the p15FerCA vector. […]
Biosensors Performance and Screening Methods
Reporter controls and the biosensor systems PLC, PPC and PferB were respectively generated by transformation of pET44PLCeGFP, pET44PPCeGFP and pET44PFerBeGFP vectors alone or with p15FerCA in BL21 and DH10B chemically competent E. coli cells. A single colony of each system was grown in LB media supplemented with antibiotics at 37 °C with shaking at 180rpm for 16 hours. Cultures were diluted (1:100) in fresh LB media with appropriate antibiotics, re-incubated at 37 °C with shaking until OD ~0.6 and transferred (450 μL) to multi- […]
μM and 1000 μM. Induction plates were incubated at 37 °C, with shaking at 1000 RPM (Stuart microtitre plate shaker incubator) for 3 hours. Cells were harvested by centrifugation, washed twice and re-suspended with PBS buffer. Expression output was analyzed by monitoring the fluorescence normalised to cell density (RFU/OD) in a multimode plate reader. […]
Compounds for screening were selected using cinnamic acid as a reference structure. The 58 selected compounds were tested with the PLC biosensor in E. coli BL21 cells. The substrate screening assays were performed using concentrations ranging from 0.32 μM to 1000 μM, as described for Ferulic acid. […]
Data Processing and Curve Fitting
Biosensor signal output (eGFP expression) was measured as Relative Fluorescence Units (RFU) and normalised to cell density (OD600). The background auto-fluorescence of E. coli was subtracted from RFU/OD and was normalised (%) to the pLC biosensor response curve to ferulic acid for each experiment. The normalised data was plotted and fitted with a dose-response curve using the Levenberg Marquardt logistic growth/sigmoidal algorithm, using the Origin 2015 (OriginLab, Northampton MA USA) program. The biomass screening data was […]

[1] = Escherichia coli, BL21, substrate screening

Row | SMILES | EC10 (Escherichia coli) [µM] | Emax (Escherichia coli) [%] | maximal fold induction (Escherichia coli) | EC50 [1] [µM] | EC90 [1] [µM] | Induction (substrate screening) | EC50 (substrate screening) [µM] | Sensing range (predicted) (substrate screening) [fold] | Change in potency relative to sinapic acid (4) (substrate screening) [fold] | Output signal / efficacy (substrate screening) [%] | Activity against the FerC biosensor (substrate screening)
1 | O=C(O)C=Cc1ccc(O)cc1 [compound 2, p-Coumaric acid] | 3.9 | > 70 | 25 | 26.1 ± 3.8 | 174 | H (high output signals, and hence good efficacy (>70%)) |  |  |  |  | 
2 | Nc1ccc(C=CC(=O)O)cc1 [compound 3, 3-(4-Aminophenyl)-2-propenoic acid] | 12 | > 70 | 28.1 | 110 ± 25.7 | 1010 | H (high output signals, and hence good efficacy (>70%)) |  |  |  |  | 
3 | COc1cc(/C=C/C(=O)O)cc(OC)c1O [compound 4, Sinapic acid] | 19.8 | > 70 | 15.4 | > 200 | 4990 | H (high output signals, and hence good efficacy (>70%)) | 314 ± 55.8 | 225 |  |  | 
4 | COc1ccc(C=CC(=O)O)cc1O [compound 5, 3-Hydroxy-4-methoxycinnamic acid] | 36.3 | > 70 | 33.5 | > 200 | 1510 | H (high output signals, and hence good efficacy (>70%)) | 234 ± 15.4 |  |  |  | 
5 | COc1cc(C=CC(=O)O)cc(O)c1O [compound 6, 3,4-Dihydroxy-5-methoxycinnamic acid] | 33.9 | 40 to 60 | 14.8 | 746 ± 118 | 16400 | M (moderate signal (60–40%)) |  | 485 | 2.5 |  | 
6 | O=C(O)C=Cc1ccc(O)cc1O [compound 7, 2,4-Dihydroxycinnamic acid] | 131 | 40 to 60 | 9.6 | 823 ± 45.6 | 5170 | M (moderate signal (60–40%)) |  |  |  |  | 
7 | COc1ccc(C=CC(=O)O)cc1OC [compound 8, 3,4-Dimethoxycinnamic acid] | 228 | 40 to 60 | 11.4 | 825 ± 13.2 | 2990 | M (moderate signal (60–40%)) |  |  |  |  | 
8 | O=C(O)/C=C/c1ccc(O)c(O)c1 [compound 9, Caffeic acid] | 222 | 40 to 60 | 11.2 | 1180 ± 88.5 | 6250 | M (moderate signal (60–40%)) |  |  |  |  | 
9 | O=C(O)C=Cc1ccc([N+](=O)[O-])cc1 [compound 10, 4-Nitrocinnamic acid] | 158 | 40 to 60 | 9.5 | 1560 ± 96.8 | 15500 | M (moderate signal (60–40%)) |  |  |  |  | 
10 | COc1cc(C=CC(=O)O)cc(OC)c1OC [compound 11, 3,4,5-Trimethoxycinnamic acid] | 378 | < 40 | 6.7 | > 2000 | 14800 | L (low signals (<40%)) | 2360 ± 265 |  | 8 | < 40 | 
11 | COc1cc(CCC(=O)O)ccc1O [compound 12, 3-(4-Hydroxy-3-methoxyphenyl)propionic acid] | 702 | < 40 | 3.3 |  | 31300 | L (low signals (<40%)) |  |  |  | < 40 | low activity
12 | COc1cccc(C=CC(=O)O)c1 [compound 13, 3-Methoxycinnamic acid] | 816 | < 40 | 4.8 |  |  | L (low signals (<40%)) |  |  |  | < 40 | 
13 | O=C(O)/C=C/c1ccccc1 [compound 14, cinnamic acid] |  |  |  |  |  |  |  |  |  |  | no activity
14 | Cc1ccc(C=CC(=O)O)cc1 [compound 29, 4-methylcinnamic acid] |  |  |  |  |  |  |  |  |  |  | devoid of activity
